Assay results: BindingDB's records for doi:10.1111/cbdd.12121 (University of California San Diego, 2013)
pIC50: −log10 of the molar value.

What follows are molecules tested against T1, Farnesyl pyrophosphate synthase (Homo sapiens, UniProt P14324) (assay: Inhibition Assay). Settings: pH 7.4; 25 °C.
T1 sequence (P14324 whole entry): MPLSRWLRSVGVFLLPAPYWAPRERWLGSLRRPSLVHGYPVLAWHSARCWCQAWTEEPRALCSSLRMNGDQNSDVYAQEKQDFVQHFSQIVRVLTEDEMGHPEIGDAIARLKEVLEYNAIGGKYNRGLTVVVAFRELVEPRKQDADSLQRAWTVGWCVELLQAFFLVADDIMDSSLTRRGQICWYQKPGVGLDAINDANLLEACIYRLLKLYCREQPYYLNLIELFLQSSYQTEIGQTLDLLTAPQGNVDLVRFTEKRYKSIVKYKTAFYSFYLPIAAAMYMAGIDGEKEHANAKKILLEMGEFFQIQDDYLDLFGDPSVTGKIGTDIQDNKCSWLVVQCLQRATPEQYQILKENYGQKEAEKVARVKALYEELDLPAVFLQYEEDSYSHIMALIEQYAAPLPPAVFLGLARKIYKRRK
Description: Human FPPS was expressed and purified and inhibition assays carried out as described previously.

In order of rising pIC50:
1. O=C(Nc1ccc(C2=NCCN2)cc1)c1ccc(C(=O)Nc2ccc(C3=NCCN3)cc2)c([NH+]([O-])O)c1 (stereo unspecified) [60340, 13]  3.96
2. O=C(Nc1ccc(C2=NCCN2)c(O)c1)c1ccc(C(=O)Nc2ccc(C3=NCCN3)c(O)c2)cc1 [76527, 23]  4.46
3. Nc1c(C(=O)Nc2ccc(C3=NCCN3)cc2)cccc1C(=O)Nc1ccc(C2=NCCN2)cc1 [72564, 22]  4.65
4. Nc1cc(C(=O)Nc2cccc(C3=NCCN3)c2)ccc1C(=O)Nc1cccc(C2=NCCN2)c1 [50464, 21]  4.68
5. Nc1cc(C(=O)Nc2ccc(C3=NCCN3)cc2)ccc1C(=O)Nc1ccc(C2=NCCN2)cc1 [50469, 20]  4.69
6. O=C(Nc1cccc(C2=NCCN2)c1)c1ccc(C(=O)Nc2cccc(C3=NCCN3)c2)cc1 [35839, 19]  4.86
7. NC(=O)c1cc(NC(=O)c2ccc(C(=O)Nc3cc(C(N)=O)cc(C4=NCCN4)c3)cc2)cc(C2=NCCN2)c1 [100873, 18]  4.97
8. O=C(Nc1ccccc1C1=NCCN1)c1ccc(C(=O)Nc2ccccc2C2=NCCN2)cc1 [35844, 17]  5.15
9. CC1CNC(c2ccc(NC(=O)c3ccc(C(=O)Nc4ccc(C5=NC(C)CN5)cc4)c(N)c3)cc2)=N1 (stereo unspecified) [66761, 16]  5.60
10. O=C(Nc1ccc(C2=NCCN2)cc1)c1cccc(C(=O)Nc2ccc(C3=NCCN3)cc2)c1 [53212, 15]  5.72
11. O=C(Nc1cccc(C2=NCCN2)c1)c1ccc(-c2ccc(C(=O)Nc3cccc(C4=NCCN4)c3)cc2)cc1 [50460, 14]  5.74
